{"source": "PubChem BioAssay AID2060488", "about": "(Molecular Pharmacology Branch, DTP, NCI, 2025)", "tested_on": "966289-007-R4-J1-PDC complex spheroid viability", "test": "Anticancer human tumor 966289-007-R4-J1-PDC patient-derived pancreatic adenocarcinoma cell line growth inhibition [GQUAD]", "conditions": "for IC50: curve of first compound; for viability, T/C: stronger effect = lower value", "in_short": "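Viability of tumor cells grown as complex spheroids with endothelial and stromal cells, exposed to drug combinations. Top concentration at or near clinical Cmax (else 10 microM), diluted in half-log increments.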", "key": {"[1]": {"conditions": "second compound 0.0316 µM, first compound 0.000999 µM"}, "[2]": {"conditions": "second compound 0.0316 µM, first compound 0.00316 µM"}, "[3]": {"conditions": "second compound 0.0316 µM, first compound 0.00999 µM"}, "[4]": {"conditions": "second compound 0.0316 µM, first compound 0.0316 µM"}, "[5]": {"conditions": "second compound 0.0316 µM, first compound 0.0999 µM"}, "[6]": {"conditions": "second compound 0.0316 µM, first compound 0.316 µM"}, "[7]": {"conditions": "second compound 0.1 µM, first compound 0.000999 µM"}, "[8]": {"conditions": "second compound 0.1 µM, first compound 0.00316 µM"}, "[9]": {"conditions": "second compound 0.1 µM, first compound 0.00999 µM"}, "[10]": {"conditions": "second compound 0.1 µM, first compound 0.0316 µM"}, "[11]": {"conditions": "second compound 0.1 µM, first compound 0.0999 µM"}, "[12]": {"conditions": "second compound 0.1 µM, first compound 0.316 µM"}, "[13]": {"conditions": "second compound 0.316 µM, first compound 0.000999 µM"}, "[14]": {"conditions": "second compound 0.316 µM, first compound 0.00316 µM"}, "[15]": {"conditions": "second compound 0.316 µM, first compound 0.00999 µM"}, "[16]": {"conditions": "second compound 0.316 µM, first compound 0.0316 µM"}, "[17]": {"conditions": "second compound 0.316 µM, first compound 0.0999 µM"}, "[18]": {"conditions": "second compound 0.316 µM, first compound 0.316 µM"}, "[19]": {"conditions": "second compound 1 µM, first compound 0.000999 µM"}, "[20]": {"conditions": "second compound 1 µM, first compound 0.00316 µM"}, "[21]": {"conditions": "second compound 1 µM, first compound 0.00999 µM"}, "[22]": {"conditions": "second compound 1 µM, first compound 0.0316 µM"}, "[23]": {"conditions": "second compound 1 µM, first compound 0.0999 µM"}, "[24]": {"conditions": "second compound 1 µM, first compound 0.316 µM"}, "[25]": {"conditions": "second compound 3.16 µM, first compound 0.000999 µM"}, "[26]": {"conditions": "second compound 3.16 µM, first compound 0.00316 µM"}, "[27]": {"conditions": "second compound 3.16 µM, first compound 0.00999 µM"}, "[28]": {"conditions": "second compound 3.16 µM, first compound 0.0316 µM"}, "[29]": {"conditions": "second compound 3.16 µM, first compound 0.0999 µM"}, "[30]": {"conditions": "second compound 3.16 µM, first compound 0.316 µM"}, "[31]": {"conditions": "second compound 10 µM, first compound 0.000999 µM"}, "[32]": {"conditions": "second compound 10 µM, first compound 0.00316 µM"}, "[33]": {"conditions": "second compound 10 µM, first compound 0.00999 µM"}, "[34]": {"conditions": "second compound 10 µM, first compound 0.0316 µM"}, "[35]": {"conditions": "second compound 10 µM, first compound 0.0999 µM"}, "[36]": {"conditions": "second compound 10 µM, first compound 0.316 µM"}}}
{"compound": "CC[C@@]1(O)C(=O)OCc2c1cc1n(c2=O)Cc2cc3c(CN(C)C)c(O)ccc3nc2-1", "note": "+ Cc1cnc(CNC(=O)c2c(=O)c3ccc(N4CCCN(C)CC4)nc3n3c2sc2ccccc23)cn1;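 note: spheroids exposed to the agents for seven days before readout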;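 for viability, T/C: percent viability relative to DMSO vehicle control wells taken as 100%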", "values": [{"measurement": "IC50", "setting": "second compound 0.0316 µM", "value": 14.7, "unit": "nM"}, {"measurement": "IC50", "setting": "second compound 0.1 µM", "value": "< 0.999", "unit": "nM"}, {"measurement": "IC50", "setting": "second compound 0.316 µM", "value": "< 0.999", "unit": "nM"}, {"measurement": "IC50", "setting": "second compound 1 µM", "value": "< 0.999", "unit": "nM"}, {"measurement": "IC50", "setting": "second compound 3.16 µM", "value": "< 0.999", "unit": "nM"}, {"measurement": "IC50", "setting": "second compound 10 µM", "value": "< 0.999", "unit": "nM"}, {"measurement": "viability, T/C", "setting": "[1]", "value": 114, "unit": "%"}, {"measurement": "viability, T/C", "setting": "[2]", "value": 101, "unit": "%"}, {"measurement": "viability, T/C", "setting": "[3]", "value": 70.2, "unit": "%"}, {"measurement": "viability, T/C", "setting": "[4]", "value": 11, "unit": "%"}, {"measurement": "viability, T/C", "setting": "[5]", "value": 0.58, "unit": "%"}, {"measurement": "viability, T/C", "setting": "[6]", "value": 0.79, "unit": "%"}, {"measurement": "viability, T/C", "setting": "[7]", "value": 37.3, "unit": "%"}, {"measurement": "viability, T/C", "setting": "[8]", "value": 28.6, "unit": "%"}, {"measurement": "viability, T/C", "setting": "[9]", "value": 16.8, "unit": "%"}, {"measurement": "viability, T/C", "setting": "[10]", "value": 3.15, "unit": "%"}, {"measurement": "viability, T/C", "setting": "[11]", "value": 0.77, "unit": "%"}, {"measurement": "viability, T/C", "setting": "[12]", "value": 0.75, "unit": "%"}, {"measurement": "viability, T/C", "setting": "[13]", "value": 9.34, "unit": "%"}, {"measurement": "viability, T/C", "setting": "[14]", "value": 13.5, "unit": "%"}, {"measurement": "viability, T/C", "setting": "[15]", "value": 8.56, "unit": "%"}, {"measurement": "viability, T/C", "setting": "[16]", "value": 2.61, "unit": "%"}, {"measurement": "viability, T/C", "setting": "[17]", "value": 0.93, "unit": "%"}, {"measurement": "viability, T/C", "setting": "[18]", "value": 0.49, "unit": "%"}, {"measurement": "viability, T/C", "setting": "[19]", "value": 5.94, "unit": "%"}, {"measurement": "viability, T/C", "setting": "[20]", "value": 5.56, "unit": "%"}, {"measurement": "viability, T/C", "setting": "[21]", "value": 4.48, "unit": "%"}, {"measurement": "viability, T/C", "setting": "[22]", "value": 1.71, "unit": "%"}, {"measurement": "viability, T/C", "setting": "[23]", "value": 0.92, "unit": "%"}, {"measurement": "viability, T/C", "setting": "[24]", "value": 0.68, "unit": "%"}, {"measurement": "viability, T/C", "setting": "[25]", "value": 3.9, "unit": "%"}, {"measurement": "viability, T/C", "setting": "[26]", "value": 3.89, "unit": "%"}, {"measurement": "viability, T/C", "setting": "[27]", "value": 3.05, "unit": "%"}, {"measurement": "viability, T/C", "setting": "[28]", "value": 0.13, "unit": "%"}, {"measurement": "viability, T/C", "setting": "[29]", "value": 0.08, "unit": "%"}, {"measurement": "viability, T/C", "setting": "[30]", "value": 0.07, "unit": "%"}, {"measurement": "viability, T/C", "setting": "[31]", "value": 0.03, "unit": "%"}, {"measurement": "viability, T/C", "setting": "[32]", "value": 0.08, "unit": "%"}, {"measurement": "viability, T/C", "setting": "[33]", "value": 0.12, "unit": "%"}, {"measurement": "viability, T/C", "setting": "[34]", "value": 0.09, "unit": "%"}, {"measurement": "viability, T/C", "setting": "[35]", "value": 0.3, "unit": "%"}, {"measurement": "viability, T/C", "setting": "[36]", "value": 0.11, "unit": "%"}]}
{"compound": "CCc1c2c(nc3ccc(O)cc13)-c1cc3c(c(=O)n1C2)COC(=O)[C@]3(O)CC", "note": "+ Cc1cnc(CNC(=O)c2c(=O)c3ccc(N4CCCN(C)CC4)nc3n3c2sc2ccccc23)cn1", "values": [{"measurement": "IC50", "setting": "second compound 0.0316 µM", "value": "< 0.999", "unit": "nM"}, {"measurement": "IC50", "setting": "second compound 0.1 µM", "value": "< 0.999", "unit": "nM"}, {"measurement": "IC50", "setting": "second compound 0.316 µM", "value": "< 0.999", "unit": "nM"}, {"measurement": "IC50", "setting": "second compound 1 µM", "value": "< 0.999", "unit": "nM"}, {"measurement": "IC50", "setting": "second compound 3.16 µM", "value": "< 0.999", "unit": "nM"}, {"measurement": "IC50", "setting": "second compound 10 µM", "value": "< 0.999", "unit": "nM"}, {"measurement": "viability, T/C", "setting": "[1]", "value": 5.02, "unit": "%"}, {"measurement": "viability, T/C", "setting": "[2]", "value": 0.7, "unit": "%"}, {"measurement": "viability, T/C", "setting": "[3]", "value": 0.49, "unit": "%"}, {"measurement": "viability, T/C", "setting": "[4]", "value": 0.4, "unit": "%"}, {"measurement": "viability, T/C", "setting": "[5]", "value": 0.35, "unit": "%"}, {"measurement": "viability, T/C", "setting": "[6]", "value": 0.36, "unit": "%"}, {"measurement": "viability, T/C", "setting": "[7]", "value": 2.67, "unit": "%"}, {"measurement": "viability, T/C", "setting": "[8]", "value": 0.71, "unit": "%"}, {"measurement": "viability, T/C", "setting": "[9]", "value": 1.06, "unit": "%"}, {"measurement": "viability, T/C", "setting": "[10]", "value": 0.42, "unit": "%"}, {"measurement": "viability, T/C", "setting": "[11]", "value": 0.35, "unit": "%"}, {"measurement": "viability, T/C", "setting": "[12]", "value": 0.46, "unit": "%"}, {"measurement": "viability, T/C", "setting": "[13]", "value": 2.26, "unit": "%"}, {"measurement": "viability, T/C", "setting": "[14]", "value": 0.87, "unit": "%"}, {"measurement": "viability, T/C", "setting": "[15]", "value": 0.52, "unit": "%"}, {"measurement": "viability, T/C", "setting": "[16]", "value": 0.5, "unit": "%"}, {"measurement": "viability, T/C", "setting": "[17]", "value": 0.79, "unit": "%"}, {"measurement": "viability, T/C", "setting": "[18]", "value": 0.41, "unit": "%"}, {"measurement": "viability, T/C", "setting": "[19]", "value": 1.23, "unit": "%"}, {"measurement": "viability, T/C", "setting": "[20]", "value": 0.79, "unit": "%"}, {"measurement": "viability, T/C", "setting": "[21]", "value": 0.82, "unit": "%"}, {"measurement": "viability, T/C", "setting": "[22]", "value": 0.08, "unit": "%"}, {"measurement": "viability, T/C", "setting": "[23]", "value": 0.63, "unit": "%"}, {"measurement": "viability, T/C", "setting": "[24]", "value": 0.12, "unit": "%"}, {"measurement": "viability, T/C", "setting": "[25]", "value": 0.43, "unit": "%"}, {"measurement": "viability, T/C", "setting": "[26]", "value": 0.09, "unit": "%"}, {"measurement": "viability, T/C", "setting": "[27]", "value": 0.06, "unit": "%"}, {"measurement": "viability, T/C", "setting": "[28]", "value": 0.05, "unit": "%"}, {"measurement": "viability, T/C", "setting": "[29]", "value": 0.12, "unit": "%"}, {"measurement": "viability, T/C", "setting": "[30]", "value": 0.09, "unit": "%"}, {"measurement": "viability, T/C", "setting": "[31]", "value": 0.03, "unit": "%"}, {"measurement": "viability, T/C", "setting": "[32]", "value": 0.07, "unit": "%"}, {"measurement": "viability, T/C", "setting": "[33]", "value": 0.08, "unit": "%"}, {"measurement": "viability, T/C", "setting": "[34]", "value": 0.07, "unit": "%"}, {"measurement": "viability, T/C", "setting": "[35]", "value": 1.27, "unit": "%"}, {"measurement": "viability, T/C", "setting": "[36]", "value": 0.1, "unit": "%"}]}
